Here are results for eight compounds from patent US20220104493A1, “HERBICIDAL COMPOUNDS” (SYNGENTA CROP PROTECTION AG, priority 2019, published 2022).

Common to all, as to experiment: Post-emergence efficacy, Method A
What all share (type): in vivo

Assay [1] has as its system Ipomoea hederacea (IPOHE). Particulars: read-out: Control of weed species after post-emergence application, IPOHE.
The subject of assay [2] is Chenopodium album (CHEAL). Particulars: read-out: Control of weed species after post-emergence application, CHEAL.
Assay [3] concerns Amaranthus palmeri (AMAPA). Particulars: read-out: Control of weed species after post-emergence application, AMAPA.
The test system of a further assay is Lolium perenne (LOLPE). Particulars: read-out: Control of weed species after post-emergence application, LOLPE.
Assay [4] deals with Digitaria sanguinalis (DIGSA). Particulars: read-out: Control of weed species after post-emergence application, DIGSA.
In a further assay the test system is Eleusine indica (ELEIN). Particulars: read-out: Control of weed species after post-emergence application, ELEIN.
The subject of assay [5] is Echinochloa crus-galli (ECHCG). Particulars: read-out: Control of weed species after post-emergence application, ECHCG.
Another assay relates to Setaria faberi (SETFA). Particulars: read-out: Control of weed species after post-emergence application, SETFA.
[6] abbreviates: 500 g/Ha, 100=total damage to plant, 0=no damage, evaluated after 7 and 14 days.

Each structure is given as a SMILES string. Like-named read-outs stand apart in the source and are kept apart here.

On to `O=S(=O)([O-])CC[n+]1ccc(-c2nc(C(F)(F)F)cs2)cc1` [Compound A21], for which the pest or weed control at 500 g/ha in assay [1] (setting [6]) was found to be 10%; in assay [2] (setting [6]), 0%; in assay [3] (setting [6]) it was 70%; in the assay on Lolium perenne (LOLPE) (setting [6]), 20%; in assay [4] (setting [6]), 70%; in the assay with Eleusine indica (ELEIN) (setting [6]) it was 80%. The pest or weed control at 500 g/ha in assay [5] (setting [6]) amounted to 90%; in the assay with Setaria faberi (SETFA) (setting [6]) it was 70%.
Regarding `CNC(=O)c1nc(-c2cc[n+](CCCS(=O)(=O)[O-])cc2)no1` [Compound A51], the pest or weed control at 500 g/ha came out at 10% in assay [1] (setting [6]); 60% in assay [2] (setting [6]); 10% in assay [3] (setting [6]); 20% in the assay with Lolium perenne (LOLPE) (setting [6]); 50% in assay [4] (setting [6]); 10% in the assay with Eleusine indica (ELEIN) (setting [6]). Moreover, the pest or weed control at 500 g/ha (in assay [5] (setting [6]); in the assay on Setaria faberi (SETFA) (setting [6])) was 30% each time.
As for `O=C(O)C[n+]1ccc(-c2nc(C(F)(F)F)co2)cc1` [Compound A44], the pest or weed control at 500 g/ha in assay [1] (setting [6]) is 0%; in assay [2] (setting [6]), 10%; in assay [3] (setting [6]), 30%; in the assay with Lolium perenne (LOLPE) (setting [6]), 10%; in assay [4] (setting [6]) it was 20%; in the assay on Eleusine indica (ELEIN) (setting [6]) it was 10%. The pest or weed control at 500 g/ha came to 10% in assay [5] (setting [6]) and 0% with Setaria faberi (SETFA) (setting [6]).
Take `CCOP(=O)([O-])C[n+]1ccc(-c2ncns2)cc1` [Compound A31]: the pest or weed control at 500 g/ha in assay [1] turned out to be 30%; in assay [2] it was 70%; in assay [3], 70%; with Lolium perenne (LOLPE), 20%; in assay [4], 80%; in the assay with Eleusine indica (ELEIN) it was 80%. The values for the pest or weed control at 500 g/ha (in assay [5]; with Setaria faberi (SETFA)) were 70% and 40%, respectively.
On to `CCOC(=O)C[n+]1ccc(-c2nncs2)cc1` [Compound A49], for which the pest or weed control at 500 g/ha in assay [1] (setting [6]) was determined as 10%; in assay [2] (setting [6]), 50%; in assay [3] (setting [6]), 10%; in the assay on Lolium perenne (LOLPE) (setting [6]), 20%; in assay [4] (setting [6]), 50%; in the assay with Eleusine indica (ELEIN) (setting [6]) it was 20%. Besides, the figures for the pest or weed control at 500 g/ha (in assay [5] (setting [6]); in the assay on Setaria faberi (SETFA) (setting [6])) were 10% and 20%, respectively.
For `O=P([O-])(O)C[n+]1ccc(-c2ncns2)cc1` [Compound A32, hydroxy-[[4-(1,2,4-thiadiazol-5-yl)pyridin-1-ium-1-yl]methyl]phosphinate], the pest or weed control at 500 g/ha in assay [1] (setting [6]) came to 0%; in assay [2] (setting [6]), 20%; in assay [3] (setting [6]), 60%; in the assay on Lolium perenne (LOLPE) (setting [6]), 10%; in assay [4] (setting [6]) it was 50%; in the assay on Eleusine indica (ELEIN) (setting [6]), 40%. For the same compound, the results for the pest or weed control at 500 g/ha (in assay [5] (setting [6]); in the assay on Setaria faberi (SETFA) (setting [6])) were 70% and 20%, respectively.
Consider `O=S(=O)([O-])C[n+]1ccc(-c2nc(C(F)(F)F)co2)cc1` [Compound A43], for which the pest or weed control at 500 g/ha was found to be 30% in assay [1] (setting [6]); 40% in assay [2] (setting [6]); 40% in assay [3] (setting [6]); 10% with Lolium perenne (LOLPE) (setting [6]); 30% in assay [4] (setting [6]); 60% with Eleusine indica (ELEIN) (setting [6]). Moreover, the pest or weed control at 500 g/ha was 60% in assay [5] (setting [6]) and 20% in the assay with Setaria faberi (SETFA) (setting [6]).
On to `O=S(=O)([O-])C[n+]1ccc(-c2ncco2)cc1` [Compound A23], for which the pest or weed control at 500 g/ha is 10% in assay [1] (setting [6]); 20% in assay [2] (setting [6]); 0% in assay [3] (setting [6]); 0% in the assay on Lolium perenne (LOLPE) (setting [6]); 20% in assay [4] (setting [6]); 0% in the assay with Eleusine indica (ELEIN) (setting [6]). For the same compound, the pest or weed control at 500 g/ha (in assay [5] (setting [6]); in the assay on Setaria faberi (SETFA) (setting [6])) was 0% each time.
